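Following 48 hours of exposure in 96-well plates, responses at five concentrations were used to interpolate endpoints linearly. GI50 is the concentration that inhibits growth by half.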 Activity calls are given as the source filed them. Cut-off read from the data, not from the text of the source: active = GI50 up to about 1.1 µM and inactive = higher.
Legend:
Assay in all cases: DTP human tumour cell line panel, 48 h
OVCAR-8 = test system: OVCAR-8
HCT-116 = test system: HCT-116
HCT-15 = test system: HCT-15
LOX IMVI = test system: LOX IMVI
786-0 = test system: 786-0
TK-10 = test system: TK-10
HCC 2998 = test system: HCC 2998
SW-620 = test system: SW-620
MCF7 = test system: MCF7
NCI-H226 = test system: NCI-H226
OVCAR-3 = test system: OVCAR-3
M14 = test system: M14
SR = test system: SR
SN12C = test system: SN12C
HT-29 = test system: HT-29
SK-MEL-28 = test system: SK-MEL-28
RXF 393 = test system: RXF 393
A498 = test system: A498

Row | SMILES | GI50 (OVCAR-8) | GI50 (HCT-116) | GI50 (HCT-15) [µM] | GI50 (LOX IMVI) | GI50 (786-0) | GI50 (TK-10) | GI50 (HCC 2998) | GI50 (SW-620) | GI50 (MCF7) | GI50 (NCI-H226) | GI50 (OVCAR-3) | GI50 (M14) | GI50 (SR) | GI50 (SN12C) | GI50 (HT-29) | GI50 (SK-MEL-28) | GI50 (RXF 393) | GI50 (A498)
1 | S=C(Nc1ccc2c(c1)oc1ccccc12)c1cccnc1 | 26.2 µM (inactive) | 85.7 µM (inactive) | > 100 | > 100 µM (inactive) | 35.3 µM (inactive) | 30.5 µM (inactive) | > 100 µM (inactive) | > 100 µM (inactive) | 40.9 µM (inactive) | 24.3 µM (inactive) | 22 µM (inactive) | > 100 µM (inactive) | > 100 µM (inactive) | > 100 µM (inactive) | > 100 µM (inactive) | > 100 µM (inactive) |  | 
2 | CCOC(=O)C1NCCc2c1[nH]c1ccccc21 (stereo not given) | > 10 µM (inactive) |  | > 10 |  | > 10 µM (inactive) | > 10 µM (inactive) | > 10 µM (inactive) | > 10 µM (inactive) | > 10 µM (inactive) |  | > 10 µM (inactive) | > 10 µM (inactive) | > 10 µM (inactive) | > 10 µM (inactive) | > 10 µM (inactive) | > 10 µM (inactive) | > 10 µM (inactive) | 
3 | CO/N=C(/C)c1cccc(Nc2nc3ccccc3c3[nH]c4ccccc4c23)c1 | 6.22 µM (inactive) | 3.16 µM (inactive) | 5.92 | 10.6 µM (inactive) | 8.55 µM (inactive) |  |  | 10.1 µM (inactive) | 5.16 µM (inactive) | 13.7 µM (inactive) | 5.7 µM (inactive) | 7.69 µM (inactive) | 5.86 µM (inactive) | 11.5 µM (inactive) | 2.49 µM (inactive) |  |  | 
4 | C=CCC1=CC2(OC)C(=O)C(OC)(OC)C1C1C(OC)(OC)C(=O)C(OC)=CC12CC=C (stereo not given) | > 100 µM (inactive) | > 100 µM (inactive) | > 100 | > 100 µM (inactive) | > 100 µM (inactive) | > 100 µM (inactive) | > 100 µM (inactive) | > 100 µM (inactive) | > 100 µM (inactive) |  | > 100 µM (inactive) | > 100 µM (inactive) |  | > 100 µM (inactive) | > 100 µM (inactive) | > 100 µM (inactive) | > 100 µM (inactive) | > 100 µM (inactive)
5 | COc1ccc(S(=O)(=O)Nc2ccccc2C(=O)O)cc1 | > 100 µM (inactive) |  | > 100 | > 100 µM (inactive) | > 100 µM (inactive) | > 100 µM (inactive) | > 100 µM (inactive) | > 100 µM (inactive) |  | > 100 µM (inactive) | > 100 µM (inactive) | > 100 µM (inactive) |  | > 100 µM (inactive) | > 100 µM (inactive) | > 100 µM (inactive) | > 100 µM (inactive) | > 100 µM (inactive)
6 | COC(=O)/C=C\S/C(=C(/c1ccccc1)n1ccc(C(=O)OC)n1)c1ccccc1 | 35.9 µM (inactive) | 20.5 µM (inactive) | > 100 | > 100 µM (inactive) | 12.4 µM (inactive) | 25.6 µM (inactive) | 41 µM (inactive) | 82.8 µM (inactive) | 8.77 µM (inactive) | > 100 µM (inactive) |  | 43.1 µM (inactive) | > 100 µM (inactive) | 37.5 µM (inactive) | > 100 µM (inactive) | 28.6 µM (inactive) | 13.1 µM (inactive) | 
7 | O=S(=O)(O)c1ccccc1/N=N\c1ccc(/N=N/c2c(O)ccc3ccccc23)c(S(=O)(=O)O)c1 | > 100 µM (inactive) | > 100 µM (inactive) | > 100 |  | > 100 µM (inactive) | > 100 µM (inactive) |  | > 100 µM (inactive) |  | > 100 µM (inactive) | > 100 µM (inactive) | > 100 µM (inactive) |  | > 100 µM (inactive) | > 100 µM (inactive) | > 100 µM (inactive) | > 100 µM (inactive) | 
8 | CCOc1ccc(Nc2nc3c(s2)C(=O)c2ccccc2C3=O)cc1 |  | 13.2 µM (inactive) | 2.55 | 3.76 µM (inactive) | 14.2 µM (inactive) | 20.8 µM (inactive) | 17.1 µM (inactive) | 3.21 µM (inactive) | 4.81 µM (inactive) |  | 3.04 µM (inactive) | 12.2 µM (inactive) |  | 3.76 µM (inactive) |  | 18.9 µM (inactive) | 12.8 µM (inactive) | 15.8 µM (inactive)
9 | CCN(CC)/C(Sc1ccccc1)=C(\C(Cl)=C(Cl)Cl)[N+](=O)[O-] | 17.2 µM (inactive) | 16.4 µM (inactive) | 14.9 | 11 µM (inactive) | 18 µM (inactive) | 16.9 µM (inactive) | 19.5 µM (inactive) | 17.9 µM (inactive) | 14.9 µM (inactive) | 18.5 µM (inactive) | 16.4 µM (inactive) | 17.3 µM (inactive) |  | 17.9 µM (inactive) | 21.5 µM (inactive) | 17.9 µM (inactive) | 13.6 µM (inactive) | 21.1 µM (inactive)
10 | CC(=O)Oc1cc(-c2oc3cc(OC(C)=O)c(C4OC(CO)C(O)C(O)C4O)c(OC(C)=O)c3c(=O)c2O)c(OC(C)=O)cc1O (stereo not given) | > 100 µM (inactive) | > 100 µM (inactive) | > 100 | > 100 µM (inactive) | > 100 µM (inactive) | > 100 µM (inactive) | > 100 µM (inactive) | > 100 µM (inactive) | > 100 µM (inactive) | 91.8 µM (inactive) | > 100 µM (inactive) | > 100 µM (inactive) |  | > 100 µM (inactive) | > 100 µM (inactive) |  | > 100 µM (inactive) | 
11 | CC(=O)NNC(=S)N/C=C1/C(=O)C=C(C)OC1=O | > 100 µM (inactive) | > 100 µM (inactive) | > 100 | > 100 µM (inactive) | > 100 µM (inactive) | > 100 µM (inactive) | > 100 µM (inactive) | > 100 µM (inactive) | > 100 µM (inactive) | > 100 µM (inactive) | > 100 µM (inactive) | > 100 µM (inactive) |  | > 100 µM (inactive) | > 100 µM (inactive) | > 100 µM (inactive) |  | 
12 | CC(C)C[C@H]1[C@@H](OCc2ccccc2)COS(=O)N1[C@H](C)c1ccccc1 (stereo not given in full) | 26.7 µM (inactive) | 4.85 µM (inactive) | 26.9 | 13.1 µM (inactive) | 13.9 µM (inactive) | 20.6 µM (inactive) |  | 29.1 µM (inactive) |  | 10.9 µM (inactive) | 10.2 µM (inactive) | 7.66 µM (inactive) |  | 17.5 µM (inactive) | 6.95 µM (inactive) | 37.6 µM (inactive) | 13.1 µM (inactive) | 22.7 µM (inactive)
13 | CC1CCC2CC1NC(=O)CCOCCC(=O)NC2(C)C (stereo not given) | > 100 µM (inactive) | > 100 µM (inactive) | > 100 | > 100 µM (inactive) | > 100 µM (inactive) | > 100 µM (inactive) | > 100 µM (inactive) | > 100 µM (inactive) | > 100 µM (inactive) |  | > 100 µM (inactive) | > 100 µM (inactive) | > 100 µM (inactive) | > 100 µM (inactive) | > 100 µM (inactive) | > 100 µM (inactive) |  | 
14 | Cc1ccc(C(=O)Nc2ccc(CP(=O)(O)O)cc2CP(=O)(O)O)cc1NC(=O)Nc1cc(C(=O)Nc2ccc(CP(=O)(O)O)cc2CP(=O)(O)O)ccc1C | > 100 µM (inactive) | > 100 µM (inactive) | > 100 | > 100 µM (inactive) | > 100 µM (inactive) | > 100 µM (inactive) | > 100 µM (inactive) | > 100 µM (inactive) | 60.5 µM (inactive) | > 100 µM (inactive) | > 100 µM (inactive) | > 100 µM (inactive) |  | > 100 µM (inactive) | > 100 µM (inactive) | > 100 µM (inactive) | > 100 µM (inactive) | > 100 µM (inactive)
15 | Cc1ccc2nc(-c3ccccc3)c(N=O)n2c1 | 41 µM (inactive) | 35.7 µM (inactive) | 34 | 46.5 µM (inactive) | 40.9 µM (inactive) | 38.3 µM (inactive) |  | 53.6 µM (inactive) | 11.6 µM (inactive) | 29.1 µM (inactive) | 32.4 µM (inactive) | 68.2 µM (inactive) |  | 20.2 µM (inactive) | 48 µM (inactive) | 45.9 µM (inactive) | > 100 µM (inactive) | > 100 µM (inactive)
16 | CC/C(Cl)=N\OC(=O)Nc1ccc(OC)cc1 | 15 µM (inactive) | 5.86 µM (inactive) | 1.6 | 2.03 µM (inactive) | 1.65 µM (inactive) | 5.43 µM (inactive) | 5.58 µM (inactive) | 2.7 µM (inactive) | 5.77 µM (inactive) | 12.2 µM (inactive) | 5.68 µM (inactive) | 5.19 µM (inactive) |  | 6.55 µM (inactive) | 6.05 µM (inactive) | 6.71 µM (inactive) | 2.15 µM (inactive) | 18.2 µM (inactive)
17 | COc1ccc(N2C(=O)C3c4[nH]c5ccc(C)cc5c4C4CCC(C)CC4C3C2=O)cc1 (stereo not given) | > 100 µM (inactive) | 36.5 µM (inactive) | > 100 | > 100 µM (inactive) | 25.7 µM (inactive) | 34.4 µM (inactive) |  | > 100 µM (inactive) |  | > 100 µM (inactive) | 58.1 µM (inactive) | > 100 µM (inactive) | 23.2 µM (inactive) | > 100 µM (inactive) | > 100 µM (inactive) |  | 20.7 µM (inactive) | 21.6 µM (inactive)
18 | COc1cccc(C[C@H]2COC(=O)[C@]2(O)Cc2cccc(OC)c2)c1 | > 100 µM (inactive) | > 100 µM (inactive) | > 100 | > 100 µM (inactive) | > 100 µM (inactive) | 70.6 µM (inactive) | 70.8 µM (inactive) | > 100 µM (inactive) |  | > 100 µM (inactive) | 97.5 µM (inactive) | > 100 µM (inactive) | > 100 µM (inactive) | > 100 µM (inactive) | > 100 µM (inactive) | > 100 µM (inactive) |  | > 100 µM (inactive)

From ChEMBL document CHEMBL1201862, “PubChem BioAssay data set” (2004)
